Assay results published in article doi:10.1101/2020.06.11.145995v1 (biorxiv, 2020).
Read-outs that look alike come from different tables or passages of the source.

Key:
Assay in all cases: biochemical
ULK3 = ULK3 (Homo sapiens, UniProt Q6PHR2)
WEE2 = WEE2 (Homo sapiens, UniProt P0C1S8)
PRKG2 = PRKG2 (Homo sapiens, UniProt Q13237)
ULK2 = ULK2 (Homo sapiens, UniProt Q8IYT8)
p38-gamma = p38-gamma (Homo sapiens, UniProt P53778)
ZAK = ZAK (Homo sapiens, UniProt Q9NYL2)
SIK = SIK (Homo sapiens, UniProt P57059)
TYK2 = TYK2 (Homo sapiens, UniProt P29597)
Sequence of TYK2 (P29597 whole entry): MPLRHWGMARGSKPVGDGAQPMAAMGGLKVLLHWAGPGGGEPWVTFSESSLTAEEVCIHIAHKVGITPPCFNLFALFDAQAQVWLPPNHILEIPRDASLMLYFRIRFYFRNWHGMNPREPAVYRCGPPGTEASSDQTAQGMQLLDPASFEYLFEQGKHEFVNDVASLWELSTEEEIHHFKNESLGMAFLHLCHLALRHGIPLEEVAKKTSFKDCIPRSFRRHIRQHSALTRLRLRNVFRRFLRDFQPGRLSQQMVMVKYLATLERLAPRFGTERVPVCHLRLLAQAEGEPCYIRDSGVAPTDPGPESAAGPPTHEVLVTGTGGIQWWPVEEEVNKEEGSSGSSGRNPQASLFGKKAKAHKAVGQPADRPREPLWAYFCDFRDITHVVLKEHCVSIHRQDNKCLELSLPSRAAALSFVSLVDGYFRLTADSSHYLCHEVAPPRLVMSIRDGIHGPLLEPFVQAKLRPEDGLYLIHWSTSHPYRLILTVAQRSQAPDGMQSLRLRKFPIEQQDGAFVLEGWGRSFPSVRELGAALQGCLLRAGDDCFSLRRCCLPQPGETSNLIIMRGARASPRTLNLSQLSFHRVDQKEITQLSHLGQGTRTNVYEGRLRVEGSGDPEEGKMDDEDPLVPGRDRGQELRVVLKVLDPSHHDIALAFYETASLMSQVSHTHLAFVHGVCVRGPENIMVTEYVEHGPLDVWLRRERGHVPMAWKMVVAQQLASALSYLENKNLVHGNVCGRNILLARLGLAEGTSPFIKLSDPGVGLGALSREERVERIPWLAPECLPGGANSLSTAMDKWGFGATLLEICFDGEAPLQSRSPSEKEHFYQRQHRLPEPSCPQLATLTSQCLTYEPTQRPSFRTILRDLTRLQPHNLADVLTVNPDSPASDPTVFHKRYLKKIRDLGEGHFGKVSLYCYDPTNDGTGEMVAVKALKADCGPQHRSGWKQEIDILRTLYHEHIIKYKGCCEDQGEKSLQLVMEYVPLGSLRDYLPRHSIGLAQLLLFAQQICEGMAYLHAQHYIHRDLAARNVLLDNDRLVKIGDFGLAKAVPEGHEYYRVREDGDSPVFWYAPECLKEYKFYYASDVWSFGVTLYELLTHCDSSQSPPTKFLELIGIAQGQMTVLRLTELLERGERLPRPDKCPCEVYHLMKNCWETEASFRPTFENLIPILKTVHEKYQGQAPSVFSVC

ZAP70 = ZAP70 (Homo sapiens, UniProt P43403)
p38-alpha = p38-alpha (Homo sapiens, UniProt Q16539)
SRPK1 = SRPK1 (Homo sapiens, UniProt Q96SB4)
PRKCH = PRKCH (Homo sapiens, UniProt P24723)
SRC = SRC (Homo sapiens, UniProt P12931)
PIK3CA(C420R) = PIK3CA(C420R) (Homo sapiens, UniProt P42336, C420R)
STK35 = STK35 (Homo sapiens, UniProt Q8TDR2)
PIK3CA(I800L) = PIK3CA(I800L) (Homo sapiens, UniProt P42336, I800L)
RPS6KA5 = RPS6KA5 (Homo sapiens, UniProt O75582)
Sequence of RPS6KA5 (O75582 whole entry): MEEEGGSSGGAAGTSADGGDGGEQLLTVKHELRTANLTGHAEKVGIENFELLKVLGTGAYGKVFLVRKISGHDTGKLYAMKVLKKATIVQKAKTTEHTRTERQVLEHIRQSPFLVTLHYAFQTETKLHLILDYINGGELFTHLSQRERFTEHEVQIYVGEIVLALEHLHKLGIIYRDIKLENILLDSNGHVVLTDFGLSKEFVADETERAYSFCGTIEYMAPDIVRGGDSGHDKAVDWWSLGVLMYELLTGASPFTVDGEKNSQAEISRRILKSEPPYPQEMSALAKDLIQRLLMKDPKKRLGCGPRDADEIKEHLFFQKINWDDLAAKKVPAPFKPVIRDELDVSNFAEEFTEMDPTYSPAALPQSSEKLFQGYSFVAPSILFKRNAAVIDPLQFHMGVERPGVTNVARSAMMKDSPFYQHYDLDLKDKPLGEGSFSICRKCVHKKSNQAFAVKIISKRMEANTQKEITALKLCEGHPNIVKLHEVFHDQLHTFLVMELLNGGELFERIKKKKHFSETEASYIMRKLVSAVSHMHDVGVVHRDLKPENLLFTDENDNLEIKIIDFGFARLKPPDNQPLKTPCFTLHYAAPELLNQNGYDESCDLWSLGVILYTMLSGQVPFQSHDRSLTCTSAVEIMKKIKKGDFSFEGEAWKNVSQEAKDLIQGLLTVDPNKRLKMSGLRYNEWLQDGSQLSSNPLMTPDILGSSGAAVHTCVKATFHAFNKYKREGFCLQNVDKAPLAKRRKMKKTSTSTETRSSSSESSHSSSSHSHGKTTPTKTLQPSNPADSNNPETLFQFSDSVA

RET = RET (Homo sapiens, UniProt P07949)
SIK2 = SIK2 (Homo sapiens, UniProt Q9H0K1)
TGFBR1 = TGFBR1 (Homo sapiens, UniProt P36897)
PRKCI = PRKCI (Homo sapiens, UniProt P41743)
RIOK1 = RIOK1 (Homo sapiens, UniProt Q9BRS2)
PRKCQ = PRKCQ (Homo sapiens, UniProt Q04759)
YANK3 = YANK3 (Homo sapiens, UniProt Q86UX6)
SRPK2 = SRPK2 (Homo sapiens, UniProt P78362)
PRKD1 = PRKD1 (Homo sapiens, UniProt Q15139)
NEK6 = NEK6 (Homo sapiens, UniProt Q9HC98)
PRP4 = PRP4 (Homo sapiens, UniProt Q13523)
Sequence of PRP4 (Q13523 whole entry): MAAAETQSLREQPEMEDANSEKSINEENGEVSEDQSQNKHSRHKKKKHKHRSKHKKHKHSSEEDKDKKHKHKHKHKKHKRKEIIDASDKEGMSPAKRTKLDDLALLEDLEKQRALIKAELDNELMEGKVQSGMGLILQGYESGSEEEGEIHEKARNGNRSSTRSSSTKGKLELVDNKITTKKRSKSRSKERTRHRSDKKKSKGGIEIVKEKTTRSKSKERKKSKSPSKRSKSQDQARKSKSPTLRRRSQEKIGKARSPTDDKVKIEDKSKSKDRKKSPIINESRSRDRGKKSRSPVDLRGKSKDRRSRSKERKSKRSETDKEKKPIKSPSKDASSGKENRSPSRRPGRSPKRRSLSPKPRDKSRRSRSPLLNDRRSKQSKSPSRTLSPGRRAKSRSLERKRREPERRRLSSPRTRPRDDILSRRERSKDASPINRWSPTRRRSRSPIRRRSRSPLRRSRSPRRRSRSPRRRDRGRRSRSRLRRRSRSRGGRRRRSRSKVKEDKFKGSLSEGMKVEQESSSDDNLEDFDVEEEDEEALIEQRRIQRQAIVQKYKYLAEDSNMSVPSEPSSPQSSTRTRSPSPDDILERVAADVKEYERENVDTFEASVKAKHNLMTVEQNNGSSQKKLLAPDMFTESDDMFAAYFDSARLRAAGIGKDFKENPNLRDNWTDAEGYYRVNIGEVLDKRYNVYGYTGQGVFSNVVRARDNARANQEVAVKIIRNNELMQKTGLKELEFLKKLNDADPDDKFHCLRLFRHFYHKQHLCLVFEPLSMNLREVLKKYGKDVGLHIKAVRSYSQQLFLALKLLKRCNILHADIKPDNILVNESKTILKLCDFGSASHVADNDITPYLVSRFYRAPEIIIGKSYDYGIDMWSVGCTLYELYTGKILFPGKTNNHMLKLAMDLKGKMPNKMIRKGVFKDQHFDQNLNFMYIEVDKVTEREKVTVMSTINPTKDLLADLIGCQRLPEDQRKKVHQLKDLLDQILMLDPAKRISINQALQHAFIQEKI

TESK1 = TESK1 (Homo sapiens, UniProt Q15569)
Sequence of TESK1 (Q15569 whole entry): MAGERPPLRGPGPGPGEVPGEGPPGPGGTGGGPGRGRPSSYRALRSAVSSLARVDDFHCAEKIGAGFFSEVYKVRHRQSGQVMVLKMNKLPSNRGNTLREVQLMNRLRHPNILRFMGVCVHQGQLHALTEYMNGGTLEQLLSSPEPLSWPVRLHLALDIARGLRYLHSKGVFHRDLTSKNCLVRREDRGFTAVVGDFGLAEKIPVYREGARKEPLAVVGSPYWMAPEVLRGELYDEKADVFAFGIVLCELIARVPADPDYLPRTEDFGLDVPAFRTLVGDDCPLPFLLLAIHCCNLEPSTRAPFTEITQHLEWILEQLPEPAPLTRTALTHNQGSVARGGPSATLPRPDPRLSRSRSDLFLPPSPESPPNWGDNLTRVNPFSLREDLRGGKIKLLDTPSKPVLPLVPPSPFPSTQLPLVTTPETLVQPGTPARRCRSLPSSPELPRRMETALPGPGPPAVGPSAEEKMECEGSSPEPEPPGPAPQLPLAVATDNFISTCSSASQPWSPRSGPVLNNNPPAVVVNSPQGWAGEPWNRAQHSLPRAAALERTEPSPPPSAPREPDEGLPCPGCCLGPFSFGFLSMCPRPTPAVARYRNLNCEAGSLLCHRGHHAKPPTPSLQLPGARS

[1] = read-out: CPT-1-70-1 (1μM) % control
[2] = read-out: HYJ-2-002-1 (1μM) % control

Sequence of ULK3 (Q6PHR2 whole entry): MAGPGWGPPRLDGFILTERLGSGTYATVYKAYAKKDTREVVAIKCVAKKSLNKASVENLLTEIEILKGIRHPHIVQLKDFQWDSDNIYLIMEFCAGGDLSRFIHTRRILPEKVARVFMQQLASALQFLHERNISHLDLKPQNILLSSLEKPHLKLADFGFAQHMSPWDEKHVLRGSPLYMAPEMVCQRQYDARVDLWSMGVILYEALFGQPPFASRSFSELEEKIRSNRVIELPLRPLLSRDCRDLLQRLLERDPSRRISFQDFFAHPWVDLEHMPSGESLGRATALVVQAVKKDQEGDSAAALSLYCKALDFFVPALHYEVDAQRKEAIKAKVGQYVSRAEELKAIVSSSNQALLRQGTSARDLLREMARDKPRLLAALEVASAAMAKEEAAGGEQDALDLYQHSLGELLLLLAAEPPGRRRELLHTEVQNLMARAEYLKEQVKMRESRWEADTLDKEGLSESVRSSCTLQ
Sequence of PRKG2 (Q13237 whole entry): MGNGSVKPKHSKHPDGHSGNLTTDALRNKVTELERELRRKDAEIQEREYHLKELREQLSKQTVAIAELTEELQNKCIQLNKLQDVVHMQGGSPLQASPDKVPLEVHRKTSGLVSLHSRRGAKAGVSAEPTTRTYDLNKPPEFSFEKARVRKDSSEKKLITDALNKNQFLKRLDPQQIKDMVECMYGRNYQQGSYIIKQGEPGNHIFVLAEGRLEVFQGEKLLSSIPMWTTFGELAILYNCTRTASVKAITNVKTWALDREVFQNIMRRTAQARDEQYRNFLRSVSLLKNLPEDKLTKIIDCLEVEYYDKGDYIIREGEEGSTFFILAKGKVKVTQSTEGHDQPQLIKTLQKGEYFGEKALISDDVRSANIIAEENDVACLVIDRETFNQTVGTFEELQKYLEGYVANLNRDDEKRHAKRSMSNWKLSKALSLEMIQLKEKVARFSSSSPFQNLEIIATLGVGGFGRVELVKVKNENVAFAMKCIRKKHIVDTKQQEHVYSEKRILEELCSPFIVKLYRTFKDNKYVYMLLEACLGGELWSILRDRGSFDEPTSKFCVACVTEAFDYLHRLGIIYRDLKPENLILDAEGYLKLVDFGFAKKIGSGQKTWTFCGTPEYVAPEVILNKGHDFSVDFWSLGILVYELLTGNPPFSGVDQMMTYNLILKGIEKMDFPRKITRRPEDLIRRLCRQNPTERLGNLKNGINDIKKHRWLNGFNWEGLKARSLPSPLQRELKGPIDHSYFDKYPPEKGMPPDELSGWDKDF

Question: What does the source list for `CN1CCN(c2ccc(Nc3nc(Oc4ccc(NC(=O)CCl)cc4)c4cc[nH]c4n3)cc2)CC1` [CPT1-70-1]?
Answer: remaining activity at 1 µM (ULK3; [1]): 19%; remaining activity at 1 µM (WEE2; [1]): 100%; remaining activity at 1 µM (PRKG2; [1]): 100%; remaining activity at 1 µM (ULK2; [1]): 29%; remaining activity at 1 µM (p38-gamma; [1]): 100%; remaining activity at 1 µM (ZAK; [1]): 71%; remaining activity at 1 µM (SIK; [1]): 100%; remaining activity at 1 µM (TYK2; read-out: CPT-1-70-1 (1μM) % control, JH1 domain-catalytic): 7.4%; remaining activity at 1 µM (TYK2; read-out: CPT-1-70-1 (1μM) % control, JH2 domain-pseudokinase): 68%; remaining activity at 1 µM (ZAP70; [1]): 0.2%; remaining activity at 1 µM (p38-alpha; [1]): 100%; remaining activity at 1 µM (SRPK1; [1]): 44%; remaining activity at 1 µM (PRKCH; [1]): 100%; remaining activity at 1 µM (SRC; [1]): 6.6%; remaining activity at 1 µM (PIK3CA(C420R); [1]): 100%; remaining activity at 1 µM (STK35; [1]): 100%; remaining activity at 1 µM (PIK3CA(I800L); [1]): 100%; remaining activity at 1 µM (RPS6KA5; read-out: CPT-1-70-1 (1μM) % control, Kin.Dom.1-N-terminal): 100%; remaining activity at 1 µM (RET; [1]): 25%; remaining activity at 1 µM (SIK2; [1]): 57%; remaining activity at 1 µM (TGFBR1; [1]): 100%; remaining activity at 1 µM (PRKCI; [1]): 65%; remaining activity at 1 µM (RIOK1; [1]): 49%; remaining activity at 1 µM (PRKCQ; [1]): 100%; remaining activity at 1 µM (YANK3; [1]): 100%; remaining activity at 1 µM (SRPK2; [1]): 98%; remaining activity at 1 µM (PRKD1; [1]): 52%; remaining activity at 1 µM (NEK6; [1]): 100%; remaining activity at 1 µM (PRP4; [1]): 90%; remaining activity at 1 µM (TESK1; [1]): 83%

Question: Which results are given for `CCN1CCN(Cc2ccc(NC(=O)c3ccc(C)c(CCc4cnc5[nH]ccc5c4OC)c3)cc2C(F)(F)F)CC1` [HYJ-2-002-1]?
Answer: remaining activity at 1 µM (ULK3; [2]): 53%; remaining activity at 1 µM (WEE2; [2]): 21%; remaining activity at 1 µM (PRKG2; [2]): 100%; remaining activity at 1 µM (ULK2; [2]): 88%; remaining activity at 1 µM (p38-gamma; [2]): 54%; remaining activity at 1 µM (ZAK; [2]): 3.9%; remaining activity at 1 µM (SIK; [2]): 1.8%; remaining activity at 1 µM (TYK2; read-out: HYJ-2-002-1 (1μM) % control, JH1 domain-catalytic): 53%; remaining activity at 1 µM (TYK2; read-out: HYJ-2-002-1 (1μM) % control, JH2 domain-pseudokinase): 100%; remaining activity at 1 µM (ZAP70; [2]): 69%; remaining activity at 1 µM (p38-alpha; [2]): 0.25%; remaining activity at 1 µM (SRPK1; [2]): 83%; remaining activity at 1 µM (PRKCH; [2]): 100%; remaining activity at 1 µM (SRC; [2]): 0.2%; remaining activity at 1 µM (PIK3CA(C420R); [2]): 100%; remaining activity at 1 µM (STK35; [2]): 91%; remaining activity at 1 µM (PIK3CA(I800L); [2]): 100%; remaining activity at 1 µM (RPS6KA5; read-out: HYJ-2-002-1 (1μM) % control, Kin.Dom.1-N-terminal): 76%; remaining activity at 1 µM (RPS6KA5; read-out: HYJ-2-002-1 (1μM) % control, Kin.Dom.2-C-terminal): 100%; remaining activity at 1 µM (RET; [2]): 0.15%; remaining activity at 1 µM (SIK2; [2]): 34%; remaining activity at 1 µM (TGFBR1; [2]): 100%; remaining activity at 1 µM (PRKCI; [2]): 73%; remaining activity at 1 µM (RIOK1; [2]): 100%; remaining activity at 1 µM (PRKCQ; [2]): 82%; remaining activity at 1 µM (YANK3; [2]): 100%; remaining activity at 1 µM (SRPK2; [2]): 100%; remaining activity at 1 µM (PRKD1; [2]): 90%; remaining activity at 1 µM (NEK6; [2]): 100%; remaining activity at 1 µM (PRP4; [2]): 100%; remaining activity at 1 µM (TESK1; [2]): 81%
